Laboratory results published in PMC9127657 (Bioorganic & medicinal chemistry, 2021).

Tested on: HIV-1 NL4–3 Nanoluc-sec virus
Assay: not given
Assay type: cell-based
Details: concentration that inhibits HIV-1NL4–3 nanoluc-sec infection of MT-4 cells by 50%; three days
Work on “(S)-2-((3-(2,3-dihydro-1H-pyrrolo[3,4-c]pyridine-2-carbonyl)phenyl) sulfonamido)-N-(4-methoxyphenyl)-N-methyl-3-phenylpropanamide [Compound I-10c]” yielded an EC50 of over 8.76 µM.

Same assay, conditions: tested concentration 5 μg/mL, MT-4 cells
With `COc1ccc(N(C)C(=O)[C@H](Cc2ccccc2)NC(=O)c2cccc(S(=O)(=O)N3CCc4ccccc43)c2)cc1` [Compound V-25d, (S)-3-(indolin-1-ylsulfonyl)-N-(1-((4-methoxyphenyl)(methyl)amino)-1-oxo-3-phenylpropan-2-yl)benzamide] the “antiviral activity at the tested concentration” value (from here on “antiviral activity”) was “loss of antiviral activity”.
For `COc1ccc(N(C)C(=O)[C@H](Cc2ccccc2)NC(=O)c2cccc(S(=O)(=O)N3CCc4cc(OC)ccc43)c2)cc1` [Compound V-25e, (S)-3-((5-methoxyindolin-1-yl)sulfonyl)-N-(1-((4-methoxyphenyl) (methyl)amino)-1-oxo-3-phenylpropan-2-yl)benzamide], the “antiviral activity” value was “loss of antiviral activity”.
With `COc1ccc(N(C)C(=O)[C@H](Cc2ccccc2)NC(=O)c2cccc(S(=O)(=O)N3CCc4cc([N+](=O)[O-])ccc43)c2)cc1` [Compound V-25f, (S)-N-(1-((4-methoxyphenyl)(methyl)amino)-1-oxo-3-phenylpropan-2-yl)-3-((5-nitroindolin-1-yl)sulfonyl)benzamide] the “antiviral activity” value was “loss of antiviral activity”.
With `COc1ccc(N(C)C(=O)[C@H](Cc2ccccc2)NC(=O)c2cccc(S(=O)(=O)Nc3ccc(C(F)(F)F)cc3)c2)cc1` [Compound V-25j, (S)-N-(1-((4-methoxyphenyl)(methyl)amino)-1-oxo-3-phenylpropan-2-yl)-3-(N-(4-(trifluoromethyl)phenyl)sulfamoyl)benzamide] the “antiviral activity” value was “loss of antiviral activity”.
In the case of `COc1ccc(N(C)C(=O)[C@H](Cc2ccccc2)NS(=O)(=O)CC(=O)N2CCc3cc([N+](=O)[O-])ccc32)cc1` [II-13 g, (S)-N-(4-methoxyphenyl)-N-methyl-2-((2-(5-nitroindolin-1-yl)-2-oxoethyl)sulfonamido)-3-phenylpropanamide], the “antiviral activity” value is reported as “lost their activity”.
With `COc1ccc(N(C)C(=O)[C@H](Cc2ccccc2)NS(=O)(=O)CC(=O)Nc2ccc3ncsc3c2)cc1` [II-13b, (S)-2-((2-(benzo[d]thiazol-6-ylamino)-2-oxoethyl)sulfonamido)-N-(4-methoxyphenyl)-N-methyl-3-phenylpropanamide] the “antiviral activity” value was “lost their activity”.
For `COc1ccc(N(C)C(=O)[C@H](Cc2ccccc2)NS(=O)(=O)CC(=O)N2CCc3cc(OC)ccc32)cc1` [II-13d, (S)-2-((2-(5-methoxyindolin-1-yl)-2-oxoethyl)sulfonamido)-N-(4-methoxyphenyl)-N-methyl-3-phenylpropanamide], the “antiviral activity” value was “lost their activity”.
With `COc1ccc(N(C)C(=O)[C@H](Cc2ccccc2)NS(=O)(=O)CC(=O)Nc2cc(F)cc(F)c2)cc1` [II-13e, (S)-2-((2-((3,5-difluorophenyl)amino)-2-oxoethyl)sulfonamido)-N-(4-methoxyphenyl)-N-methyl-3-phenylpropanamide] the “antiviral activity” value was “lost their activity”.
In the case of `COc1ccc(N(C)C(=O)[C@H](Cc2ccccc2)NS(=O)(=O)CC(=O)n2ncc3ccccc32)cc1` [II-13f, (S)-2-((2-(1H-indazol-1-yl)-2-oxoethyl)sulfonamido)-N-(4-methoxyphenyl)-N-methyl-3-phenylpropeanamide], the “antiviral activity” value is reported as “lost their activity”.
With `COc1ccc(N(C)C(=O)[C@H](Cc2ccccc2)NC(=O)c2cccc(S(=O)(=O)Nc3cc(F)cc(F)c3)c2)cc1` [V-25 h, (S)-3-(N-(3,5-difluorophenyl)sulfamoyl)-N-(1-((4-methoxyphenyl)(methyl)amino)-1-oxo-3-phenylpropan-2-yl)benzamide] the “antiviral activity” value was “loss of antiviral activity”.

Tested on: MT-4 cells
Assay: Cytotoxicity assay in MT-4 cells
Assay type: cell-based
Details: concentration required to reduce the viability of uninfected MT-4 cells by 50%; three days
Molecule “(S)-2-((3-(2,3-dihydro-1H-pyrrolo[3,4-c]pyridine-2-carbonyl)phenyl) sulfonamido)-N-(4-methoxyphenyl)-N-methyl-3-phenylpropanamide [Compound I-10c]” has a CC50 of over 8.76 µM.

Tested on: not listed separately
Assay: Cytotoxicity assay in MT-4 cells
Assay type: cell-based
Details: human, uninfected MT-4 cells
`COc1ccc(N(C)C(=O)[C@H](Cc2ccccc2)NC(=O)C(=O)Nc2ccc([N+](=O)[O-])cc2)cc1` [III-16f, (S)-N1-(1-((4-methoxyphenyl)(methyl)amino)-1-oxo-3-phenylpropan-2-yl)–N2-(4-nitrophenyl)oxalamide] showed a CC50 at 3 days of over 10.2 µM.
